Results reported in ChEMBL document CHEMBL3351947, “Isolation of pyrrolocins A-C: cis- and trans-decalin tetramic acid antibiotics from an endophytic fungal-derived pathway” (J Nat Prod, 2014).

Assays:
[1] = system: Mycobacterium tuberculosis; assay: Antimicrobial activity against Mycobacterium tuberculosis H37Ra after 4 days by MTT assay; type: functional, organism-based; conditions: 96 h
[2] = Cytotoxicity against human CEM-TART cells after 4 days by MTT assay; type: cell-based; conditions: 96 h

SMILES | IC50 [1] [µM] | IC50 [2] [µM]
CO[C@H]1/C=C/O[C@@]2(C)Oc3c(C)c(O)c4c(O)c(c(/C=N/N5CCN(C)CC5)c(O)c4c3C2=O)NC(=O)/C(C)=C\C=C\[C@H](C)[C@H](O)[C@@H](C)[C@@H](O)[C@@H](C)[C@H](OC(C)=O)[C@@H]1C [RIFAMPIN] | 0.152 | 
CC1=C[C@H]2C[C@@H](C)CC[C@@H]2[C@@](C)(C(=O)C2=C(O)[C@@H](CO)N(C)C2=O)[C@H]1/C=C/C=C/C[C@@H](C)O | 26.3 | 76.6
CC1=C[C@@H]2C[C@@H](C)CC[C@@H]2[C@@](C)(C(=O)C2=C(O)[C@@H](CO)NC2=O)[C@@H]1/C=C/C=C/C[C@@H](C)O | 113 | 167
CC1=C[C@H]2C[C@@H](C)CC[C@@H]2[C@@](C)(C(=O)C2=C(O)[C@@H](CO)NC2=O)[C@H]1/C=C/C=C/C[C@@H](C)O | 56.4 | 113
